Measured values reported in patent US20230102520A1, “INHIBITORS OF LOW MOLECULAR WEIGHT PROTEIN TYROSINE PHOSPHATASE (LMPTP) AND USES THEREOF” (Sanford Burnham Prebys Medical Discovery Institute, priority 2019, published 2023).

Each compound was assayed against T1, human LMPTP-A (Homo sapiens, UniProt P24666) (assay: Enzyme Assay of Inhibition of LMPTP-A). Conditions: phosphatase assay, OMFP or pNPP substrate, 50 mM Bis-Tris pH 6.0, 37° C.
T1 sequence (P24666 1-158): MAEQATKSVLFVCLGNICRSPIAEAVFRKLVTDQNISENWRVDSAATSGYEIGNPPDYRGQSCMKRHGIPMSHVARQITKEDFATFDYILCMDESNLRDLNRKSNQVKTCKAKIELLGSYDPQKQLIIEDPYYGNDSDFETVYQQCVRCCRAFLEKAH
Assay type: biochemical
Method: Example B-1: Enzyme Assay of Inhibition of LMPTP-A
Phosphatase assays were performed in buffer containing 50 mM Bis-Tris, pH 6.0, 1 mM DTT and 0.01% Triton X-100 at 37° C. For assays conducted with 3-O-methylfluorescein phosphate (OMFP) as substrate, fluorescence was monitored continuously at λex=485 and λem=525 nm. For assays conducted with para-nitrophenylphosphate (pNPP) as substrate, the reaction was stopped by addition of 2× reaction volume of 1 M NaOH, and absorbance was measured at 405 nm. IC50 values of compounds disclosed herein were determined from plots of inhibitor concentration versus percentage of enzyme activity. For inhibitor selectivity assays, each PTP was incubated with either 0.4 mM OMFP or 5 mM pNPP in the presence of 40 μM compound or DMSO. […] For the inhibitor reversibility assay, 50 nM human LMPTP-A was pre-incubated with 10 μM of compound disclosed herein or DMSO for 5 min. The enzyme was diluted 100× in phosphatase assay buffer containing 0.4 mM OMFP and fluorescence was measured at the indicated time points.

Compound	IC50
Cc1ccccc1-c1nc2c(N)nc(C)n(Cc3c(Cl)ccnc3Cl)c-2n1 [3-[(2,4-dichloro(3-pyridyl))methyl]-2-methyl-8-(2-methylphenyl)-3-hydropurine-6-ylamine]	1000 to 20000 nM
Cc1ccccc1-c1nc2c(N)ncn(Cc3c(C)ccnc3C)c-2n1 [3-[(2,4-dimethyl(3-pyridyl))methyl]-8-(2-methylphenyl)-3-hydropurine-6-ylamine]	< 1000 nM
Cc1ccnc(C)c1Cn1cnc(N)c2nc(-c3ccccc3)nc1-2 [3-[(2,4-dimethyl(3-pyridyl))methyl]-8-phenyl-3-hydropurine-6-ylamine]	< 1000 nM
Cc1ccccc1-c1nc2c(N)ncn(Cc3c(Cl)nc(N)nc3Cl)c-2n1 [3-[(2-amino-4,6-dichloropyrimidin-5-yl)methyl]-8-(2-methylphenyl)-3-hydropurine-6-ylamine]	< 1000 nM
Cc1ccccc1-c1nc2c(N)ncn(Cc3cccnc3C)c-2n1 [3-[(2-methyl(3-pyridyl))methyl]-8-(2-methylphenyl)-3-hydropurine-6-ylamine]	< 1000 nM
Cc1ccccc1-c1nc2c(N)nc(C)n(Cc3c(Br)cncc3Br)c-2n1 [3-[(3,5-dibromo(4-pyridyl))methyl]-2-methyl-8-(2-methylphenyl)-3-hydropurine-6-ylamine]	1000 to 20000 nM
Nc1ncn(Cc2c(Br)cncc2Br)c2nc(-c3ccc4c(c3)CCCC4)nc1-2 [3-[(3,5-dibromo(4-pyridyl))methyl]-8-(2-5,6,7,8-tetrahydronaphthyl)-3-hydropurine-6-ylamine]	< 1000 nM
Cc1ccccc1-c1nc2c(N)ncn(Cc3c(Br)cncc3Br)c-2n1 [3-[(3,5-dibromo(4-pyridyl))methyl]-8-(2-methylphenyl)-3-hydropurine-6-ylamine]	< 1000 nM

Next, values leading:

IC50	Compound
< 1000 nM	3-[(3,5-dichloro(4-pyridyl))methyl]-8-(2-5,6,7,8-tetrahydronaphthyl)-3-hydropurine-6-ylamine
< 1000 nM	3-[(3,5-diiodo(4-pyridyl))methyl]-8-(2-methylphenyl)-3-hydropurine-6-ylamine
< 1000 nM	3-[(4-iodo-2-methoxy(3-pyridyl))methyl]-8-(2-methylphenyl)-3-hydropurine-6-ylamine
< 1000 nM	Cc1cc(-c2nc3c(N)ncn(Cc4c(Cl)ccnc4Cl)c-3n2)n(C)n1 [3-[(2,4-dichloro(3-pyridyl))methyl]-8-(1,3-dimethylpyrazol-5-yl)-3-hydropurine-6-ylamine]
< 1000 nM	Nc1ncn(Cc2c(Cl)ccnc2Cl)c2nc(-c3cc(F)ccc3F)nc1-2 [3-[(2,4-dichloro(3-pyridyl))methyl]-8-(2,5-difluorophenyl)-3-hydropurine-6-ylamine]
< 1000 nM	Nc1ncn(Cc2c(Cl)ccnc2Cl)c2nc(-c3ccc4c(c3)CCCC4)nc1-2 [3-[(2,4-dichloro(3-pyridyl))methyl]-8-(2-5,6,7,8-tetrahydronaphthyl)-3-hydropurine-6-ylamine]
< 1000 nM	Cc1ccccc1-c1nc2c(N)ncn(Cc3c(Cl)ccnc3Cl)c-2n1 [3-[(2,4-dichloro(3-pyridyl))methyl]-8-(2-methylphenyl)-3-hydropurine-6-ylamine]
< 1000 nM	Nc1ncn(Cc2c(Cl)ccnc2Cl)c2nc(Cc3ccc(F)cc3)nc1-2 [3-[(2,4-dichloro(3-pyridyl))methyl]-8-[(4-fluorophenyl)methyl]-3-hydropurine-6-ylamine]
< 1000 nM	Nc1ncn(Cc2c(Cl)ccnc2Cl)c2nc(-c3ccccc3)nc1-2 [3-[(2,4-dichloro(3-pyridyl))methyl]-8-phenyl-3-hydropurine-6-ylamine]
< 1000 nM	COc1ccnc(OC)c1Cn1cnc(N)c2nc(-c3ccccc3C)nc1-2 [3-[(2,4-dimethoxy(3-pyridyl))methyl]-8-(2-methylphenyl)-3-hydropurine-6-ylamine]
< 1000 nM	Cc1nc(C)c(Cn2cnc(N)c3nc(-c4ccccc4C)nc2-3)s1 [3-[(2,4-dimethyl(1,3-thiazol-5-yl))methyl]-8-(2-methylphenyl)-3-hydropurine-6-ylamine]
